What was measured:
Conditions in all cases: FP, probe AbuRPFK-5FAM, 60 min at 25° C.
[1] = biological target: T1, XIAP-BIR3 (Homo sapiens, UniProt P98170); experiment: XIAP-BIR3 fluorescence polarization binding assay
T1 construct: purchased Reaction Biology APT-11-374
Excerpt: (§1) IAPs are one main cause of cancer development and may result from overexpression of anti-apoptotic proteins. This protocol establishes three binding assays for XIAP Bir3 domain, cIAP1 and cIAP2 using FP (Fluorescence polarization) technology. The fluorescence probe used is a synthetic peptide conjugated to 5-carboxyfluorescein (AbuRPFK-5FAM). The fluorescence polarization value (mP) was detected by Envision, which was used to reflect the binding degree of protein and fluorescent marker. Reagents and equipment used in the assay are listed below, followed by the protocol.
(§2) • a) Prepare 100 times of the final cpd concentration in appropriate tube and transfer 5 uL compound (“cpd”) to 45 μL 1× reaction buffer with 10% DMSO. • b) The final reference cpd concentration is 10000, 3333.3, 1111.1, 370.4, 123.4, 41.2, 13.7, 4.57, 1.52, 0.51, 0.17 and 0 nM. So the 100 times of the concentration is 1000, 333.3, 111.1, 37.04, 12.34, 4.12, […], 0.15, 0.05, 0.017 and 0 μM. The final test cpds concentration is 3333.3, 1111.1, 370.4, 123.4, 41.2, 13.7, 4.57, 1.52, 0.51, 0.17, 0.057 and 0 nM. So the 100 times of the concentration is 333.3, 111.1, 37.04, 12.34, 4.12, […], 0.15, 0.05, 0.017, 0.0057 and 0 μM • c) Add 8 μL/well each dose enzyme to 384 well microplate (ProxiPlate-384 F Plus, 6008260) using multichannel pipette, prepared in step 2.1.1.2 • d) Centrifuge at 1000 rpm. • e) Add 2 μL/well cpd to 384 well microplate (ProxiPlate-384 F Plus, 6008260) using multichannel pipette, prepared in step a). • f) Centrifuge at 1000 rpm. RT, 15 min. • g) Start the assay by adding 10 uL/well substrate (prepared in step 2.1.1.3) to the same 384 well microplate using multichannel pipette • h) Centrifuge at 1000 rpm. • i) Cover the assay plate and incubate for 60 min at 25° C. • j) Read on Envision 2104 for mP and plot the IC50s with mP values. • k) Data analysis: IC50s were determined based on a non-linear regression analysis of data collected.

[2] = biological target: T2, cIAP1-BIR3 (Homo sapiens, UniProt Q13490); experiment: cIAP1-BIR3 fluorescence polarization binding assay
T2 construct: cIAP1-BIR3; Reaction Biology; APT-11-370; purchased Reaction Biology APT-11-370
T2 sequence (Q13490 253-363 limits assumed): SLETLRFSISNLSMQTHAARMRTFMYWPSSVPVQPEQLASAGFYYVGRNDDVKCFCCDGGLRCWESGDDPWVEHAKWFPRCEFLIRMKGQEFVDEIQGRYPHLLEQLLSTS
Excerpt: as §1, §2

[3] = biological target: T3, cIAP2-BIR3 (Homo sapiens, UniProt Q13489); experiment: cIAP2-BIR3 fluorescence polarization binding assay
T3 construct: cIAP2-BIR3; Reaction Biology; APT-11-372; purchased Reaction Biology APT-11-372
T3 sequence (Q13489 238-349 limits assumed): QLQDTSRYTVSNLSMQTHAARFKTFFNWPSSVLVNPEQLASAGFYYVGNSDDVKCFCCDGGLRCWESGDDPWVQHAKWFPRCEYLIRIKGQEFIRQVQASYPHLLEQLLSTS
Excerpt: as §1, §2

T1 sequence (P98170 241-356 limits assumed): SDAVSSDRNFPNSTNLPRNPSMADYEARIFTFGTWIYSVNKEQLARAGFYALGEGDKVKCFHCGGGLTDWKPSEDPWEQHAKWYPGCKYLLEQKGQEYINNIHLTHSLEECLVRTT

Row | IC50 [1] [nM] | IC50 [2] [nM] | IC50 [3] [nM] | Structure (SMILES)
1 | 100 to 1000 | 0.1 to 10 | 10 to 100 | CN[C@@H](C)C(=O)N[C@@H](C)C(=O)N1C[C@@H](OCCC(=O)N2CCN(C(=O)CCO[C@H]3C[C@@H](C(=O)N[C@@H]4CCCc5ccccc54)N(C(=O)[C@H](C)NC(=O)[C@H](C)NC)C3)CC2)C[C@H]1C(=O)N[C@@H]1CCCc2ccccc21 [Compound IV-A, (2S,4S)-1-[(2S)-2-[(2S)-2-(Methylamino)propanamido]propanoyl]-4-[3-[4-(3-[[(3S,5S)-1-[(2S)-2-[(2S)-2-(methylamino)propanamido]propanoyl]-5-[[(1R)-1,2,3,4-tetrahydronaphthalen-1-yl]carbamoyl]pyrrolidin-3-yl]oxy]propanoyl)piperazin-1-yl]-3-oxopropoxy]-N-[(1R)-1,2,3,4-tetrahydronaphthalen-1-yl]pyrrolidine-2-carboxamide]
2 | 10 to 100 | 0.1 to 10 | 10 to 100 | CN[C@@H](C)C(=O)N[C@H](C(=O)N1C[C@@H](OCCC(=O)N2CCN(C(=O)CCO[C@H]3C[C@@H](C(=O)N[C@@H]4CCCc5ccccc54)N(C(=O)[C@@H](NC(=O)[C@H](C)NC)C(C)C)C3)CC2)C[C@H]1C(=O)N[C@@H]1CCCc2ccccc21)C(C)C [Compound IV-D, (2S, 4S)-1-[(2S)-3-Methyl-2-[(2S)-2-(methylamino)propanamido]butanoyl]-4-[3-[4-(3-[[(3S,5S)-1-[(2S)-3-methyl-2-[(2S)-2-(methylamino)propanamido]butanoyl]-5-[[(1R)-1,2,3,4-tetrahydronaphthalen-1-yl]carbamoyl]pyrrolidin-3-yl]oxy]propanoyl)piperazin-1-yl]-3-oxopropoxy]-N-[(1R)-1,2,3,4-tetrahydronaphthalen-1-yl]pyrrolidine-2-carboxamide]

From patent publication US20210371459A1, “DIMERIC PEPTIDE INHIBITORS OF APOPTOSIS PROTEINS” (Hepagene Therapeutics (HK) Limited, priority 2017, published 2021)
